Source: patent publication US7915270B2, “Oxazole ketones as modulators of fatty acid amide hydrolase” (The Scripps Research Institute, priority 2006, dated 2011)

Biological target: T1, FAAH (Rattus norvegicus, UniProt P97612)
T1 sequence (P97612 1-579): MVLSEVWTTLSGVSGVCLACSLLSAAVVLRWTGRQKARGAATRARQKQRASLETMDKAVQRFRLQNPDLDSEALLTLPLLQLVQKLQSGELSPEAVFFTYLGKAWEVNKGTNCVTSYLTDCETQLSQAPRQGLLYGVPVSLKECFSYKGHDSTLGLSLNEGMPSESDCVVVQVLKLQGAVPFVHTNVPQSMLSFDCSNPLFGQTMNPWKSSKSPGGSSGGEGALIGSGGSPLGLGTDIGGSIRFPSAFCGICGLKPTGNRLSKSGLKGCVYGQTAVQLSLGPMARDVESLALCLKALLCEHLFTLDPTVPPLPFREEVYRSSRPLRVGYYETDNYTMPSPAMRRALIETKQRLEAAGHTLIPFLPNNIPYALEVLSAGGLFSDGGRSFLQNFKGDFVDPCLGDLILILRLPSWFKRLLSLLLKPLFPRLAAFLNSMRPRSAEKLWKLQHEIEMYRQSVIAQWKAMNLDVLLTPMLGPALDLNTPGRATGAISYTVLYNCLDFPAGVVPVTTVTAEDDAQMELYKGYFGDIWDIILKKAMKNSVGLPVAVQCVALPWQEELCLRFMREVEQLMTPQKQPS
Test: Assay Method 1A: FAAH enzyme assay, 14C-oleamide hydrolysis, solubilized liver plasma membrane extract;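 further: ki obtained by Dixon analysis, taking the x-intercept of inhibitor concentration versus reciprocal rate plots at fixed substrate level and correcting for substrate concentration relative to Km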
Settings: not given

Row | Structure (SMILES) | Ki [nM]
1 | COc1cccc(-c2cnc(C(=O)CCCCCCc3ccccc3)o2)c1 [Example 14, 1-(5-(3-Methoxyphenyl)oxazol-2-yl)-7-phenylheptan-1-one] | 40
2 | NS(=O)(=O)c1ccc(-c2cnc(C(=O)CCCCCCc3ccccc3)o2)cc1 [Example 21, 4-(2-(7-Phenylheptanoyl)oxazol-5-yl)benzenesulfonamide] | 10
3 | COC(=O)c1ccccc1-c1cnc(C(=O)CCCCCCc2ccccc2)o1 [Example 22, Methyl 2-(2-(7-phenylheptanoyl)oxazol-5-yl)benzoate] | 60
4 | O=C(O)c1cccc(-c2cnc(C(=O)CCCCCCc3ccccc3)o2)c1 [Example 25, 3-(2-(7-Phenylheptanoyl)oxazol-5-yl)benzoic acid] | 5

Now from value to compound:

Row | Ki [nM] | Structure (SMILES)
5 | 3 | NS(=O)(=O)c1ccc(-c2cnc(C(=O)CCCCCCc3ccccc3)o2)s1 [Example 59, 5-(2-(7-Phenylheptanoyl)oxazol-5-yl)thiophene-2-sulfonamide]
6 | 6 | COC(=O)c1ccc(-c2cnc(C(=O)CCCCCCc3ccccc3)o2)o1 [Example 55, Methyl 5-(2-(7-phenylheptanoyl)oxazol-5-yl)furan-2-carboxylate]
7 | 60 | O=C(O)c1ccc(-c2cnc(C(=O)CCCCCCc3ccccc3)o2)cc1 [Example 26, 4-(2-(7-Phenylheptanoyl)oxazol-5-yl)benzoic acid]

Biological target: T2, Rat FAAH (Rattus norvegicus, UniProt P97612)
T2 construct: expressed in transfected cells
T2 sequence (P97612 1-579): T1 sequence (P97612 1-579)
Test: Assay Method 2: FAAH assay, 3H-anandamide hydrolysis in cell homogenate (SK-N-MC cells transfected with rat FAAH)
Assay type: biochemical
Settings: 3H-AEA 80 nM, rt 1 h, pH 9
Description: A. Transfection of Cells with Rat FAAH
(§1) A 10-cm tissue culture dish with a confluent monolayer of SK—N-MC cells was split 2 days (d) prior to transfection. Using sterile technique, the media was removed and the cells were detached from the dish by the addition of trypsin. One fifth of the cells were then placed onto a new 10-cm dish. Cells were grown in a 37° C. incubator with 5% CO2 in Minimal Essential Media Eagle with 10% Fetal Bovine Serum. After 2 d, cells were approximately 80% confluent. These cells were removed from the dish with trypsin and pelleted in a clinical centrifuge. The pellet was re-suspended in 400 μL complete media and transferred to an electroporation cuvette with a 0.4 cm gap between the electrodes. Supercoiled rat FAAH cDNA (1 μg) was added to the cells and mixed. The voltage for the electroporation was set at 0.25 kV, and the capacitance was set at 960 μF. After electroporation, the cells were diluted into complete media (10 mL) and plated onto four 10-cm dishes. Because of the variability in the efficiency of electroporation, four different concentrations of cells were plated. The ratios used were 1:20, 1:10, and 1:5, with the remainder of the cells being added to the fourth dish. The cells were allowed to recover for 24 h before adding the selection media (complete media with 600 μg/mL G418). After 10 d, dishes were analyzed for surviving colonies of cells. Dishes with well-isolated colonies were used. Cells from individual colonies were isolated and tested.
The assay mixture consisted of 50 μL of the cell homogenate, 10 μL of the test compound, and 40 μL of anandamide [1-^3H-ethanolamine] (^3H-AEA, Perkin-Elmer, 10.3 Ci/mmol), which was added last, for a final tracer concentration of 80 nM. The reaction mixture was incubated at rt for 1 h. During the incubation, 96-well Multiscreen filter plates (catalog number MAFCNOB50; Millipore, Bedford, Mass., USA) were loaded with 25 μL of activated charcoal (Multiscreen column loader, catalog number MACL09625, Millipore) and washed once with 100 μL of MeOH. […] After the 1 h incubation, 60 μL of the reaction mixture were transferred to the charcoal plates, which were then assembled on top of the DYNEX plates using Centrifuge Alignment Frames (catalog number MACF09604, Millipore). The unbound labeled ethanolamine was centrifuged through to the bottom plate (5 min at 2000 rpm), which was preloaded with the scintillant, as described above. The plates were sealed and left at rt for 1 h before counting on a Hewlett Packard TopCount.

Row | Structure (SMILES) | IC50 [nM]
8 | COc1cccc(-c2cnc(C(=O)CCCCCCc3ccccc3)o2)c1 [Example 14, 1-(5-(3-Methoxyphenyl)oxazol-2-yl)-7-phenylheptan-1-one] | 4500
9 | NS(=O)(=O)c1ccc(-c2cnc(C(=O)CCCCCCc3ccccc3)o2)cc1 [Example 21, 4-(2-(7-Phenylheptanoyl)oxazol-5-yl)benzenesulfonamide] | 53
10 | COC(=O)c1ccccc1-c1cnc(C(=O)CCCCCCc2ccccc2)o1 [Example 22, Methyl 2-(2-(7-phenylheptanoyl)oxazol-5-yl)benzoate] | 2200
11 | O=C(O)c1cccc(-c2cnc(C(=O)CCCCCCc3ccccc3)o2)c1 [Example 25, 3-(2-(7-Phenylheptanoyl)oxazol-5-yl)benzoic acid] | 11

The remaining lines, values ahead:

Row | IC50 [nM] | Structure (SMILES)
12 | 8 | NS(=O)(=O)c1ccc(-c2cnc(C(=O)CCCCCCc3ccccc3)o2)s1 [Example 59, 5-(2-(7-Phenylheptanoyl)oxazol-5-yl)thiophene-2-sulfonamide]
13 | 20 | COC(=O)c1ccc(-c2cnc(C(=O)CCCCCCc3ccccc3)o2)o1 [Example 55, Methyl 5-(2-(7-phenylheptanoyl)oxazol-5-yl)furan-2-carboxylate]
14 | 160 | O=C(O)c1ccc(-c2cnc(C(=O)CCCCCCc3ccccc3)o2)cc1 [Example 26, 4-(2-(7-Phenylheptanoyl)oxazol-5-yl)benzoic acid]

Biological target: T3, FAAH (Homo sapiens, UniProt O00519)
T3 sequence (O00519 1-579): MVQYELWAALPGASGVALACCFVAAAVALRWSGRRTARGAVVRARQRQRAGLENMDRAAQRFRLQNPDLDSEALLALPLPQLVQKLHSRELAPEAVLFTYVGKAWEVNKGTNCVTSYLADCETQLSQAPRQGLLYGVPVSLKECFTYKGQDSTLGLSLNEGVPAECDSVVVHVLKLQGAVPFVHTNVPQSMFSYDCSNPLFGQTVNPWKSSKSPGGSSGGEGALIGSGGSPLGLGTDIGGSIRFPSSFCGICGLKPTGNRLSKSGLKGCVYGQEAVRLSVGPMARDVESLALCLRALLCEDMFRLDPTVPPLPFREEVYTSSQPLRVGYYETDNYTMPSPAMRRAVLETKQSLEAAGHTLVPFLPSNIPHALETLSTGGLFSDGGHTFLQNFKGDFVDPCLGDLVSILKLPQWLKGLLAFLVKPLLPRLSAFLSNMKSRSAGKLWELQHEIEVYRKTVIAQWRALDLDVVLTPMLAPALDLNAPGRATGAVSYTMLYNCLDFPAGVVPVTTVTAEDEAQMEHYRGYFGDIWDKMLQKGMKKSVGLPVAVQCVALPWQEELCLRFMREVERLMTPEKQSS
Test: Assay Method 1B: FAAH assay, 3H-anandamide hydrolysis in cell homogenate (T84 or SK-N-MC cells transfected with human FAAH)
Assay type: biochemical
Set-up: expressed in transfected cells
Settings: 3H-AEA 80 nM, rt 1 h, pH 9
Description: as §1, with “Transfection of Cells with Human FAAH A 10-cm” for “A 10-cm”, “electrodes. Supercoiled human FAAH cDNA” for “electrodes. Supercoiled rat FAAH cDNA”, “and tested. […] The reaction mixture was incubated at rt for 1 h. During the incubation, 96-well Multiscreen filter plates (catalog number MAFCNOB50; Millipore, Bedford, Mass., USA) were loaded with 25 μL of activated charcoal (Multiscreen column loader, catalog number MACL09625, Millipore) and washed once with 100 μL of MeOH. Also during the incubation, 96-well DYNEX MicroLite plates (catalog number NL510410) were loaded with 100 μL of MicroScint40 (catalog number 6013641, Packard Bioscience, Meriden, Conn., USA). After the 1 h incubation, 60 μL of the reaction mixture were transferred to the charcoal plates, which were then assembled on top of the DYNEX plates using Centrifuge Alignment Frames (catalog number MACF09604, Millipore). The unbound labeled ethanolamine was centrifuged through to the bottom plate (5 min at 2000 rpm), which was preloaded with the scintillant, as described above. The plates were sealed and left at rt for 1 h before counting on a Hewlett Packard TopCount.” for “and tested.”

Row | Structure (SMILES) | IC50 [nM]
15 | COc1cccc(-c2cnc(C(=O)CCCCCCc3ccccc3)o2)c1 [Example 14, 1-(5-(3-Methoxyphenyl)oxazol-2-yl)-7-phenylheptan-1-one] | 100
16 | NS(=O)(=O)c1ccc(-c2cnc(C(=O)CCCCCCc3ccccc3)o2)cc1 [Example 21, 4-(2-(7-Phenylheptanoyl)oxazol-5-yl)benzenesulfonamide] | 8
17 | COC(=O)c1ccccc1-c1cnc(C(=O)CCCCCCc2ccccc2)o1 [Example 22, Methyl 2-(2-(7-phenylheptanoyl)oxazol-5-yl)benzoate] | 260
18 | O=C(O)c1cccc(-c2cnc(C(=O)CCCCCCc3ccccc3)o2)c1 [Example 25, 3-(2-(7-Phenylheptanoyl)oxazol-5-yl)benzoic acid] | 4

Second part, the compound after the results:

Row | IC50 [nM] | Structure (SMILES)
19 | 2 | NS(=O)(=O)c1ccc(-c2cnc(C(=O)CCCCCCc3ccccc3)o2)s1 [Example 59, 5-(2-(7-Phenylheptanoyl)oxazol-5-yl)thiophene-2-sulfonamide]
20 | 11 | COC(=O)c1ccc(-c2cnc(C(=O)CCCCCCc3ccccc3)o2)o1 [Example 55, Methyl 5-(2-(7-phenylheptanoyl)oxazol-5-yl)furan-2-carboxylate]
21 | 6 | O=C(O)c1ccc(-c2cnc(C(=O)CCCCCCc3ccccc3)o2)cc1 [Example 26, 4-(2-(7-Phenylheptanoyl)oxazol-5-yl)benzoic acid]
